Source: US20110251134A1, “COMBINATION OF (A) A DNA TOPOSOMERASE INHIBITOR AND (B) AN IAP INHIBITOR” (priority 2004, published 2011)

What was measured:
melanoma model = experiment: growth in a melanoma model; format: cell-based
caspase-3 = caspase-3 activity in a breast tumor model; format: cell-based
Procedure: In a breast tumor model, both compound C and topotecan (1 nM) individually increase caspase-3 activity less than two fold over the control. A nearly twelve fold increase in caspase-3 activity is seen with the same amount of compound C at a concentration of about 1 nM topotecan.

For CC[C@@]1(O)C(=O)OCc2c1cc1n(c2=O)Cc2cc3ccccc3nc2-1 [camptothecin, Camptothecin], the growth (melanoma model; camptothecin 5 nM alone) was “about 50 % of control”.
For CN[C@@H](C)C(=O)N[C@H](C(=O)N1C[C@@H](NC(=O)CC2CCCCC2)C[C@H]1C(=O)NCCc1ccccc1)C(C)C [compound C], the “increase in caspase-3 activity over the control” value (caspase-3; compound C alone) was “less than two”.
In the case of CN[C@@H](C)C(=O)N[C@H](C(=O)N1CCC[C@H]1C(=O)NC(Cc1ccccc1)Cc1ccccc1)C(C)C [compound D], the growth (melanoma model; compound D 250 nM alone) is reported as “about 90 % of control”.
For CC[C@@]1(O)C(=O)OCc2c1cc1n(c2=O)Cc2cc3c(CN(C)C)c(O)ccc3nc2-1 [topotecan], the “increase in caspase-3 activity over the control” value (caspase-3; topotecan 1 nM alone) was “less than two”.
